Experimental data taken from patent publication US4497809A, “Cephalosporin derivatives” (Takeda Chemical Industries, Ltd., priority 1982, dated 1985).

Experiments:
[1] = in vivo; parameters: species or system mouse (male SLC-ICR mice); details: mouse; for Bioavailability / AUC (area under plasma-concentration curve of non-ester form, 0 to 2 hr): 100 mg/kg; for AUC (area under plasma-concentration curve of non-ester form, 0 to 2 hr): po
Protocol: Test compounds: compounds obtained in examples 6, 8, 10, 13, 14, 16, 21, 23 and compound for control: pivaloyloxymethyl 7β-[2-(2-aminothiazol-4-yl)acetamido]-3-[[[1-(2-dimethylaminoethyl)-1H-tetrazol-5-yl]thio]methyl]-ceph-3-em-4-carboxylate (This will be referred to simply "compound A" hereinafter).
Male SLC-ICR mice (4 weeks old) were starved but under free access to drinking water for 16-18 hr. period to the experiments. The test compound was administered orally by intubation as an aqueous solution with 2.5 equimolar of tartaric acid at a dose of 100 mg/kg as non-ester form of the Compound I, to a group of four mice. […] The concentration of the non-ester form of the Compound I in the plasma was measured by the cylinder-plate method using Proteus mirabilis ATCC 21100 as an assay organism.
Control test: an aqueous solution of non-ester form of the Compound I in an amount of 10 ml water/Kg mouse body weight, was subcutaneously applied and AUC was calculated in the same manner as above.
Area under plasma-concentration curve (AUC) for 0 to 2 hr. after
administration was calculated by the trapezoidal rule.

[2] = system: gram-positive bacteria (e.g., Staphylococcus aureus); test: Antibacterial activity against gram-positive bacteria; format: cell-based; details: in words
[3] = system: gram-negative bacteria (e.g., Escherichia coli, Klebsiella pneumonia, Proteus vulgaris, Proteus mirabilis, Proteus morganii); test: Antibacterial activity against gram-negative bacteria; format: cell-based; details: in words

SMILES | AUC at 2 h ([1]; sc) | Bioavailability, control ([1]; sc, 120 min) | antibacterial activity against gram-positive bacteria [2] | antibacterial activity against gram-negative bacteria [3] | Bioavailability ([1]; 120 min) | AUC (area under plasma-concentration curve of non-ester form, 0 to 2 hr) ([1]; 120 min)
CN(C)CCn1nnnc1SCC1=C(C(=O)O)N2C(=O)[C@@H](NC(=O)Cc3csc(N)n3)[C@H]2SC1 [non-ester form of Compound I, 7β-[2-(2-aminothiazol-4-yl)acetamido]-3-[[[1-(2-dimethylaminoethyl)-1H-tetrazol-5-yl]thio]methyl]ceph-3-em-4-carboxylic acid, reference compound] | 38800 ng·h/mL | 100% | excellent antibacterial activity | excellent antibacterial activity | – | –
CCCCCC(=O)OC(CC)OC(=O)C1=C(CSc2nnnn2CCN(C)C)CS[C@@H]2[C@H](NC(=O)Cc3csc(N)n3)C(=O)N12 (stereo partly drawn) [Example 16, 1-(n-hexanoyloxy)propyl 7β-[2-(2-aminothiazol-4-yl)acetamido]-3-[[[1-(2-dimethylaminoethyl)-1H-tetrazol-5-yl]thio]methyl]ceph-3-em-4-carboxylate] | – | – | – | – | 65.0% | 25200 ng·h/mL
CCCCCC(=O)OC(C)OC(=O)C1=C(CSc2nnnn2CCN(C)C)CS[C@@H]2[C@H](NC(=O)Cc3csc(N)n3)C(=O)N12 (stereo partly drawn) [Example 6, 1-(n-hexanoyloxy)ethyl 7β-[2-(2-aminoethiazol-4-yl)acetamido]-3-[[[1-(2-dimethylaminoethyl)-1H-tetrazol-5-yl]thio]methyl]ceph-3-em-4-carboxylate] | – | – | – | – | 67.5% | 26200 ng·h/mL
CC(C)CCC(=O)OC(C)OC(=O)C1=C(CSc2nnnn2CCN(C)C)CS[C@@H]2[C@H](NC(=O)Cc3csc(N)n3)C(=O)N12 (stereo partly drawn) [Example 8, 1-(4-methylpentanoyloxy)ethyl 7β-[2-(2-aminothiazol-4-yl)acetamido]-3-[[[1-(2-dimethylaminoethyl)-1H-tetrazol-5-yl]thio]methyl]ceph-3-em-4-carboxylate] | – | – | – | – | 52.8% | 20500 ng·h/mL
CN(C)CCn1nnnc1SCC1=C(C(=O)OCOC(=O)C(C)(C)C)N2C(=O)[C@@H](NC(=O)Cc3csc(N)n3)[C@H]2SC1 [Compound A, pivaloyloxymethyl 7β-[2-(2-aminothiazol-4-yl)acetamido]-3-[[[1-(2-dimethylaminoethyl)-1H-tetrazol-5-yl]thio]methyl]-ceph-3-em-4-carboxylate, reference compound] | – | – | – | – | 41.8% | –
CCCCCCCC(=O)OC(C)OC(=O)C1=C(CSc2nnnn2CCN(C)C)CS[C@@H]2[C@H](NC(=O)Cc3csc(N)n3)C(=O)N12 (stereo partly drawn) [Example 13, 1-(n-octanoyloxy)ethyl 7β-[2-(2-aminothiazol-4-yl)acetamido]-3-[[[1-(2-dimethylaminoethyl)-1H-tetrazol-5-yl]thio]methyl]ceph-3-em-4-carboxylate] | – | – | – | – | 60.6% | 23500 ng·h/mL
CCCC(CCC)C(=O)OC(C)OC(=O)C1=C(CSc2nnnn2CCN(C)C)CS[C@@H]2[C@H](NC(=O)Cc3csc(N)n3)C(=O)N12 (stereo partly drawn) [Example 14, 1-(2-n-propylpentanoyloxy)ethyl 7β-[2-(2-aminothiazol-4-yl)acetamido]-3-[[[1-(2-dimethylaminoethyl)-1H-tetrazol-5-yl)thio]methyl]ceph-3-em-4-carboxylate] | – | – | – | – | 66.0% | 25600 ng·h/mL
CCC(C)CC(=O)OC(C)OC(=O)C1=C(CSc2nnnn2CCN(C)C)CS[C@@H]2[C@H](NC(=O)Cc3csc(N)n3)C(=O)N12 (stereo partly drawn) [Example 10, 1-(3-methylpentanoyloxy)ethyl 7β-[2-(2-aminothiazol-4-yl)acetamido]-3-[[[1-(2-dimethylaminoethyl)-1H-tetrazol-5-yl]-thio]methyl]ceph-3-em-4-carboxylate] | – | – | – | – | 93.2% | 36200 ng·h/mL
CCC(CC)CC(=O)OC(C)OC(=O)C1=C(CSc2nnnn2CCN(C)C)CS[C@@H]2[C@H](NC(=O)Cc3csc(N)n3)C(=O)N12 (stereo partly drawn) [Example 23, 1-(3-ethylpentanoyloxy)ethyl 7β-[2-(2-aminothiazol-4-yl)acetamido]-3-[[[1-(2-dimethylaminoethyl)-1H-tetrazol-5-yl]thio]methyl]ceph-3-em-4-carboxylate] | – | – | – | – | 78.2% | 30300 ng·h/mL
CCC(CC)C(=O)OC(C)OC(=O)C1=C(CSc2nnnn2CCN(C)C)CS[C@@H]2[C@H](NC(=O)Cc3csc(N)n3)C(=O)N12 (stereo partly drawn) [Example 21, 1-(2-ethylbutyryloxy)ethyl 7β-[2-(2-aminothiazol-4-yl)acetamido]-3-[[[1-(2-dimethylaminoethyl)-1H-tetrazol-5-yl]thio]methyl]ceph-3-em-4-carboxylate] | – | – | – | – | 100.0% | 38800 ng·h/mL
